In US12521425B2, “Method of liver cancer treatment with safranal-based formulations” (priority 2019, dated 2026):

What was measured:
[1] = system: HepG2 cells; experiment: Cell morphology, crystal violet; format: cell-based; conditions: HepG2, increasing doses, 24 hours
Procedure: Cell morphology. HepG2 were seeded at a density of 0.25×10^6 cells/well in 6-well plate. After allowing the cell to attach, HepG2 cells were treated without or with different concentrations of safranal (30, 50, 100, 500, 700 μM) for 24 hrs. After which, cells were fixed and stained with crystal violet. The morphology of the cells was assessed after being fixed and stained with 0.5% crystal violet using IX53 microscope (Olympus).

[2] = system: HepG2 cells; experiment: Annexin V binding assay; format: cell-based; conditions: HepG2, 500 μM, after 48 hours; increase from 8%
[3] = system: HepG2 cells; experiment: RNAseq differential gene expression and GO enrichment; format: cell-based, Homo sapiens; conditions: for genes significantly differentially expressed: vs untreated
Procedure: RNAseq libraries construction and sequencing. Total RNA was isolated from three biological replicates of safranal treatments and untreated sample using RNeasy Mini Kit (Qiagen) following the manufacturer's instructions. The RNAseq libraries were prepared using TruSeq RNA sample prep kit (Illumina, Inc.) following the manufacturer's instructions. Briefly, TruSeq RNA sample prep kit converts the poly-A containing mRNA in total RNA into a cDNA library using poly-T oligo-attached magnetic bead selection. Following mRNA purification, the RNA is chemically fragmented prior to reverse transcription and cDNA generation. The fragmentation step results in an RNAseq library that includes inserts that range in size from approximately 100-400 bp. The average insert size in an Illumina TruSeq RNA sequencing library is approximately 200 bp. The cDNA fragments then go through an end repair process, the addition of a single ‘A’ base to the 3′ end and then ligation of the adapters. Then, the products are purified and enriched with PCR to create the final double stranded cDNA libraries. Finally, libraries quality control and quantification were performed with a Bioanalyzer Chip DNA 1000 series II (Agilent) and sequenced directly using the high-throughput Illumina HiSeq sequencing system (Illumina, Inc.).
Alignment and analysis of Illumina reads against the reference genome. The data was processed through the standard RNAseq analysis pipeline at NYUAD. Briefly, alignments were performed using tophat2 v2.1.0 with the parameters “-no-novel-junctions” and “-G” when specifying the genome file. Following the tophat2 alignment stage, read counts were generated using HTseq count, and the counts were analyzed using the DESeq2 R library. The reference genome and GFF annotation correspond to the Homo sapiens GRCh38.p2 genome version. Venn diagram summarizing the gene expression analysis was constructed using the web-based tool InteractiVenn. Heatmaps were produced by Excel.
Gene set enrichment analysis. Functional and gene set enrichment analysis of DEGs was performed using eXploring Genomic Relations (XGR) which is an open source tool for enrichment analysis with default parameters. The enrichment test is based on Hypergeometric distribution to identify the enriched gene ontology terms. The false positive rate was calculated by simulating a random set of genes of different sizes and found they were independent of the size of gene sets. Network analysis of over-representation GO terms was performed using the Biological Networks Gene Ontology tool (BiNGO) plug-in for Cytoscape. BiNGO retrieved the relevant GO Biological process annotation then tested for significance using the hypergeometric test and corrected multiple testing using Benjamini and Hochberg false discovery rate (FDR) correction ≤0.05.

[4] = system: DEN-induced hepatic neoplasia; experiment: Liver gross and histopathological examination in DEN-induced HCC model; format: in vivo, male Wistar rats; conditions: HCC rats
Procedure: A modified version of the protocol described by DePeralta et al. (2016) and Schiffer et al. (2005) was used here to establish the hepatocarcinogenesis model.
On the first 15 weeks, the control PBS group was treated with 1×PBS, whereas the experimental groups were given an intraperitoneal injection (IP) of 50 mg/kg of diethylnitrosoamine (DEN, Sigma Aldrich), a widely used chemical for inducing cancer, once a week. DEN was diluted with 1×PBS. Following a one-week break (week 16), the next three weeks (weeks 17 to 19) of treatment commenced. All drugs were administrated by oral gavage. All doses were chosen according to literature (Alsaied et al., 2014; Karafakioglu et al., 2017). For the HCC+sorafenib group, the drug (Carbosynth Limited) was administered at a dose of 10 mg/kg, five days a week. For the HCC+safranal group, the drug (Sigma Aldrich) was administered at a dose of 200 mg/kg, five days a week. For the HCC+safranal+sorafenib group, the drugs were administered at a dose of 200 mg/kg safranal+10 mg/kg sorafenib, five days a week. Both safranal and sorafenib were diluted with 1×PBS and drops of Tween 80. […] After 24-hours from last treatment, the rats were euthanized by mild diethyl ether and dissected in equal conditions. Blood and whole liver were collected.
Liver sample specimens were fixed in 10% neutral buffered formalin, dehydrated in a series of graded ethanol, embedded in paraffin blocks, and cut into 3 μm-thick sections. To detect histopathological changes, sections were stained with hematoxylin and eosin (H&E), and reticulin stain kit according to the protocol provided (Abcam), then examined under light microscope (Ozkececi et al., 2016). Blinded examination of tissue samples was carried out by a pathologist from Tawam Hospital—United Arab Emirates.

Structure (SMILES): CC1=C(C=O)C(C)(C)CC=C1 [safranal]
- morphological changes [1]: morphological alterations including more rounded cell shapes, cell shrinkage, and increased detachment
- number of dead cells (annexin V) [2]: 31%
- genes downregulated ([3]; 12 hours): 3,769 genes
- genes upregulated ([3]; 12 hours): 2,812 genes
- genes significantly differentially expressed ([3]; 12 hours): 6,581 genes
- genes downregulated ([3]; 24 hours): 5,331 genes
- genes upregulated ([3]; 24 hours): 2,458 genes
- genes significantly differentially expressed ([3]; 24 hours): 7,789 genes
- N, GO term Cell migration ([3]; Downregulated 12 h): 28
- N, GO term Growth ([3]; Downregulated 12 h): 27
- N, GO term Wound healing ([3]; Downregulated 12 h): 25
- N, GO term Cell adhesion ([3]; Downregulated 24 h): 149
- N, GO term Signal transduction ([3]; Downregulated 24 h): 327
- N, GO term Wound healing ([3]; Downregulated 24 h): 32
- N, GO term Cellular Response to DNA damage stimulus ([3]; Upregulated 12 h): 48
- N, GO term Proteasome-mediated ubiquitin-dependent protein catabolic process ([3]; Upregulated 12 h): 47
- N, GO term Response to unfolded protein ([3]; Upregulated 12 h): 14
- N, GO term Apoptotic mitochondrial changes ([3]; Upregulated 24 h): 6
- N, GO term Proteasome-mediated ubiquitin-dependent protein catabolic process ([3]; Upregulated 24 h): 50
- N, GO term Response to unfolded protein ([3]; Upregulated 24 h): 12
- area of neoplastic foci (histology) ([4]; H&E, versus HCC): restoration of the normal architecture of the liver
- number of liver nodules / lesions ([4]; comparing to HCC animals): reduced lesions
- reticular fibers (reticulin staining) ([4]; comparing to HCC group): reduced reticular fibers' breakage and restored their morphology
